# Results reported in patent publication US3970648A, “2-[2-(5-Nitro-2-furyl)vinyl]-4-(anilino)quinazolines” (Diamond Shamrock Corporation, priority 1974, dated 1976).
# Experiment: Growth rate and feed efficiency in swine, Example XIII (Table VIII)
# Format: in vivo, weanling pigs
# Details: 25 g/T
# Description: Thirty-six weanling pigs weighing approximately 30 pounds each in good physical condition and originating from a common source were used in these tests. The pigs were allocated into sex and weight equalized pens of six pigs each. A 1 week period was allowed for acclimatization before testing. Three replicates of six pigs were fed the basal ration described below, and three replicates were fed the same basal ration supplemented with 25 g/T of the product of Example I.
# The basal ration was a 17% commercial corn-soya pelletized formulation which was free of antibiotic and drug components. Composition of the basal ration formulation was: […]
# The rations were offered ad libitum from six bushel self-feeders with a continuous supply of fresh water. The same ration formulations were used throughout the 6 week feeding period. Individual pig weighing were made after 0, 2, 4 and 6 (termination) week periods. Feed consumption records were kept on a pen basis, with feed efficiency conversion being compiled at the end of the second, fourth and sixth (termination) week of feeding. Complete morbidity and mortality records were kept.
# [1] = 6 weeks, mean of three replicates
structure (smiles),measurement,setting,value
"O=[N+]([O-])c1ccc(C=Cc2nc(Nc3ccc(O)cc3)c3ccccc3n2)o1 [Example I, 2-[2-(5-nitro-2-furyl)vinyl]-4-(p-hydroxyanilino)quinazoline]",Improved Response Over Basal Ration: Feed Efficiency,6 weeks,+2.4%
same,Improved Response Over Basal Ration: Gain,6 weeks,+9.9%
same,feed efficiency (in words),6 weeks,enhanced feed efficiency
same,growth improvement (in words),6 weeks,very substantial growth improvement
same,Avg. Daily Gain,[1],1.537
same,Feed/lb. Gain,[1],2.507
same,Avg. Daily Gain,"6 weeks, replicate a",1.567
same,Feed/lb. Gain,"6 weeks, replicate a",2.722
same,Avg. Daily Gain,"6 weeks, replicate b",1.567
same,Feed/lb. Gain,"6 weeks, replicate b",2.392
same,Avg. Daily Gain,"6 weeks, replicate c",1.476
same,Feed/lb. Gain,"6 weeks, replicate c",2.406
same,Avg. 6 Wk. Wt. Per Pig,replicate a,97.8
same,Avg. 6 Wk. Wt. Per Pig,replicate b,97.6
same,Avg. 6 Wk. Wt. Per Pig,replicate c,93.7
